The record followed here is patent publication US20040094749A1, “Method for producing a phenothiazine granulate with improved properties” (priority 2000, published 2004).

The data set can be described thus: Solubility behavior of solid phenothiazine in acrylic acid (method 1b, NIR probe). Conditions: room temperature.

Molecules are shown by their SMILES.

Protocol: Method for determining the solubility behavior of solid phenothiazine of different forms and particle size distributions
Thereafter, at time intervals of from 1 to 5 mm, either a.) a sample of the dispersion was taken and filtered and the phenothiazine content was determined by UV spectroscopy or b.) the phenothiazine content was determined directly by means of an NIR probe which dipped into the dispersion of phenothiazine in acrylic acid (NIRVIS universal spectrometer from Buchi having a transmission probe with 1.5 mm slit width. In order to prevent disturbances by solid particles in the measuring slit, this was closed by means of a metal screen having a mesh size of 0.18 mm).
For this purpose, in each case 1.33 g of the respective sample were added to 66 g of acrylic acid and measurements were carried out at intervals of one minute (Graph. 1).

In the case of `c1ccc2c(c1)Nc1ccccc1S2` [phenothiazine, 2,3,5,6-dibenzo-1,4-triazine], the “maximum solubility of phenothiazine in acrylic acid” value is “about 2.8 % (m/m)”.
